Test results: patent US7381743B2, “Macrocycles for the treatment of cancer” (Leibniz-Institut Fuer Pflanzenbiochemie (IPB), priority 2003, dated 2008)
Where two headings read alike, the source gives them in different places. One block for each compound: values may come before it.

Legend:
Format in all cases: cell-based
[1] = tested on: MCF7 breast cancer; assay: Proliferation assay (acidic phosphatase), MCF7; conditions: Homo sapiens, read-out: Proliferation assay GI50, IC-50, MCF7 breast cancer
[2] = tested on: L 929 mouse fibroblasts; assay: Proliferation assay (acidic phosphatase), L 929; conditions: L929, 120 h, read-out: Proliferation assay GI50, IC-50, L 929 mouse fibroblasts
Method: (§1) Proliferation assay GI50: acidic phosphatase, incubation period 5 days, IC-50 (μM)

[3] = tested on: A 549 lung cancer; assay: Proliferation assay (acidic phosphatase), A 549; conditions: Homo sapiens, A549, 120 h, read-out: Proliferation assay GI50, IC-50, A 549 lung cancer
Method: as §1

[4] = acidic phosphatase, incubation period 5 days

- IC50 ([1]; MCF7, 120 h, acidic phosphatase, incubation period 5 days): 3 nM
- IC50 [3, 4]: 6 nM
Structure (SMILES): CC(=O)O[C@H]1C(=O)[C@@]2(C)[C@H]([C@H](OC(=O)c3ccccc3)[C@]3(O)C[C@H](OC(=O)[C@H](O)[C@@H](NC(=O)c4ccccc4)c4ccccc4)C(C)=C1C3(C)C)[C@]1(OC(C)=O)CO[C@@H]1C[C@@H]2O [Taxol, Paclitaxel, reference compound]
- IC50 [2, 4]: 270 nM

Structure (SMILES): C/C1=C/C[C@@H](/C(C)=C/c2csc(C)n2)OC(=O)CS(=O)(=O)C(C)(C)C(=O)[C@H](C)[C@@H](O)[C@@H](C)CCC1 [MC-C5, (7R,8R,9S,13Z)-8-Hydroxy-5,5,7,9,13-pentamethyl-16-[(IE)-1-methyl-2-(2-methyl-thiazol-4-yl)-vinyl]-4,4-dioxo-1-oxa-4-thia-cyclohexadec-13-en-2,6-dion]
- IC50 ([1]; MCF7, 120 h): > 10000 nM

Structure (SMILES): C/C1=C/C[C@@H](/C(C)=C/c2cccc(C)n2)OC(=O)CSC(C)(C)C(=O)[C@H](C)[C@@H](O)/C(C)=C/CC1 [MC54849, (7R,8R,9E,13Z)-8-Hydroxy-5,5,7,9,13-pentamethyl-16-[(1E)-1-methyl-2-(6-methyl-pyridin-2-yl)-vinyl]-1-oxa-4-thia-cyclohexadec-9,13-dien-2,6-dion]
- IC50 ([1]; MCF7, 96 h): 531 nM

Structure (SMILES): C/C1=C/C[C@@H](/C(C)=C/c2csc(C)n2)OC(=O)CSC(C)(C)C(=O)[C@H](C)[C@@H](O)[C@@H](C)CCC1 [MC54690, (7R,8S,9S,13Z,16S)-8-hydroxy-5,5,7,9,13-pentamethyl-16-[(E)-1-methyl-2-(2-methyl-1,3-thiazol-4-yl)vinyl]-1-oxa-4-thiacyclohexadec-13-ene-2,6-dione]
- IC50 ([1]; MCF7, 120 h): 45 nM
- IC50 [2]: 274 nM
- IC50 [3]: 9 nM
